The values below come from patent US20070265307A1, “Administration of 4-aminopiperidine compounds for inducing and/or stimulating the growth of keratin fibers and/or preventing loss thereof” (L'OREAL, priority 2006, published 2007).

The subject of this experiment is normal human fibroblasts. As to the kind of experiment: Dermodecontracting effect: spontaneous contraction of attached dermal equivalents (collagen matrix seeded with normal human fibroblasts). It is filed as cell-based. Conditions: dermal equivalent, contraction kinetics 0, 4, 8 and 24 hours. From the text: The principle of this test entails studying the effect of the test product on a model of dermal equivalent consisting of a collagen matrix seeded with normal human fibroblasts.
These conditions are suited to mimic, in vitro, the dermal contractile phenomena that occur during facial expressions. Under these conditions, in fact, the cells spontaneously express tensile forces which induce a retraction of the collagen gel. […] The measurement of this surface area makes it possible to evaluate the relaxing effects of the substances brought into contact beforehand with the dermal equivalent.
[…] The experiment is repeated three times.
The dermal equivalents are prepared as described in Asselineau et al., Exp. Cell. Res., 1985,159, 536-539; Models in Dermatology, 1987, vol. 3 pp 1-7, in the following proportions: […]
The collagen used is collagen type I (commercial solution). It is extracted from rat tail or from calf skin by acid hydrolysis and stored in an acidic medium at +4° C.; it polymerizes naturally by heating at 37° C. and by decreasing the degree of acidity. […]
For this, a digital image is acquired for each treated or non-treated dermal equivalent by means of a camera (Camera CCD-Iris Sony DXC-107P) and the surface area is then calculated on each image by means of an image analysis system (Zeiss Axiovision 3.0). […]

`c1ccc(CCCNC2CCN(CCc3ccccc3)CC2)cc1` [Compound No. 1, 1-(2-phenylethyl)-4-[N-(3-phenylpropyl)]aminopiperidine]: the “reduction of the fibroblast contraction, on average over the duration of the experiment, compared with the control” value (tested at 1 μM) came out at 21%.

In the case of `CC(NC1CCN(CCc2ccccc2)CC1)c1ccccc1` (centres unmarked) [Compound No. 5, 1-(2-phenylethyl)-4-[N-(1-phenyl-ethyl)]aminopiperidine], where the note is “tested at 10 μM”, the “reduction of the fibroblast contraction, on average over the duration of the experiment, compared with the control” value was 40%.
